From patent publication US6344464B1, “Use of tetrahydropyridine derivatives to prepare medicines for treating diseases causing demyelination” (Sanofi-Synthelabo, priority 1997, dated 2002)
Counter-ions that a name gives are not always drawn.

Legend:
[1] = system: experimental allergic encephalitis (EAE); test: experimental allergic encephalitis (EAE) model induced by intraplantar myelin basic protein (fragment 68-84) in Freund's complete adjuvant; assay type: in vivo; conditions: EAE in Lewis rats, administered orally from day zero of induction
Text: The activity of the compounds of formula (I) was investigated in the model of experimental allergic encephalitis (EAE) induced in Lewis rats by the intraplantar administration of myelin basic protein (MBP) (fragment 68-84) in a Freund's complete adjuvant (FCA) enriched in Mycobacterium tuberculosis, according to the protocol published by Martin and Near (Journal of Neuroimmunology, 1995, 241-245).
EAE is an inflammatory autoimmune disease of the central nervous system which presents demyelinating lesions reminiscent of human multiple sclerosis.

SMILES | melting point | severity of the disease (paralysis of the back paws) [1] | weight loss of the treated animals ([1]; compared with animals treated with the vehicle only)
FC(F)(F)c1cccc(C2=CCN(CC(c3ccccc3)c3ccccc3)CC2)c1 (as salt: hydrochloride) | 207 to 210 °C | – | –
CCCCCc1ccc(CCN2CC=C(c3cccc(C(F)(F)F)c3)CC2)cc1C (as salt: oxalate) | 140 to 143 °C | – | –
Cl.FC(F)(F)c1cccc(C2=CCN(CCc3ccc4ccccc4c3)CC2)c1 [1-(2-naphth-2-ylethyl)-4-(3-trifluoromethylphenyl)-1,2,3,6-tetrahydropyridine hydrochloride] | – | statistically less severe | significantly lower
